Entries after “also recorded” stand apart in the source; their conditions may differ.
Experiments:
pACLY (S455) = assay: ELISA of pACLY (S455) / ACLY enzymatic activity in PANC-1 cells; format: cell-based, human; conditions: 5 μM
Protocol: ELISA assay was used to evaluate the effect of GS compounds on protein activity levels in PANC-1 cancer cells. PANC-1 cells were serum-starved overnight and then treated with rIGF1 (100 ng/mL) for 24 hours, with or without GS27 (5 μM). The levels of the following proteins were evaluated by ELISA assay: a) p70 S6 (T389) (cat no. 54164C, Cell Signaling); b) pAKT (S473), (cat no. 80895, Cell Signaling); c) pACLY (S455), (cat no. okag1672, Avivasysbio); d) pAMPK (T172) (cat no. 7959C, Cell Signaling) and e) p65/NFKB (S536), (cat no. 7173, Cell Signaling).
PANC-1 is a human pancreatic ductal adenocarcinoma cell line derived from the carcinoma of a person.
The molecular mechanism of action of GS27, a compound that has exerted potent anti-cancer activity in different cancer cell lines including pancreatic cancer cells, was investigated. Oleacein has been implicated to have anti-inflammatory and metabolic effects, thus the potential effects of GS27 in different metabolic and inflammatory pathways were evaluated. Specifically, the protein levels of p70 S6 (T389), pAKT (S473), pACLY (S455), pAMPK (T172) and p65/NFKB (S536) were evaluated by ELISA assay in PANC-1 pancreatic cancer cells treated with 5 μM GS27. GS27 reduced p70 S6 and AKT phosphorylation levels, while it increased AMPK phosphorylation.
The effects of different GS compounds on ACLY enzymatic activity were evaluated by ELISA assay in PANC-1 pancreatic cancer cells. […] This finding is unexpected, since GS21 has a very similar structure with GS27, with the only difference being the presence of an oxygen atom in ester GS21 instead of a sulfur atom in thioester GS27.

[1] = ABTS radical cation scavenging assay; format: biochemical; conditions: NS = not statistically significant
From the text: The method of estimating antioxidant capacity, based on the ability to interact with the ABTS.+ radical cation was first performed by Miller et al. in 1993 (Miller, Nicholas et al., Clinical Science, 1993, 84: 407-412, “A novel method for measuring the antioxidant capacity and its application to monitoring the antioxidant status in premature neonates”). The mechanism of interaction of the antioxidant agents to be examined with the ABTS.+ radical is similar to that of the DPPH. radical, which can be inactivated either by the addition of an electron or by the addition of a hydrogen atom. However, unlike the DPPH. radical, which is a stable radical from the beginning, the ABTS.+ radical must be produced by the oxidation of ABTS. Thus, in order to estimate the antioxidant capacity of a substance, the formation of the ABTS.+ radical must first precede and the addition of the substance to be examined must follow. The addition of the antioxidant agent is performed after the production of the root ABTS.+ to avoid the interaction of the antioxidant agents with the oxidizing agents used for the oxidation of ABTS.
The oxidation of ABTS takes place either through chemical reactions with various reagents or through the action of enzymes such as peroxidases. The ABTS.+ radical from the moment it is formed is stable, has a green color and absorbs at 730 nm. When a substance with antioxidant activity is added to the solution, then the ABTS.+ radical is reduced by the addition of a hydrogen (or electron) atom, resulting in reduced visual absorption.
To assess the antioxidant capacity of the samples, the oxidation of ABTS was performed enzymatically through the action of horseradish peroxidase (HRP), in the presence of H2O2 (FIG. 3)
The anti-oxidant capacity of the GS compounds was evaluated by performing the ABTS assay as previously described (Kouka, Paraskevi et al., Oxid Med Cell Longev. 2019, Article ID 1870965). Briefly, in a total reaction volume of 1 mL in distilled water (dH2O), ABTS.^+ (1 mM), H2O2 (30 μM), and horseradish peroxidase (HRP) (6 μM) in 50 mM phosphate-buffered saline were added. The solution was incubated for 45 min at room temperature (RT) in the dark. Finally, 10 μL of the tested GS compound at various concentrations was added, and the absorbance was monitored on a Hitachi U-1900 radio beam spectrophotometer (serial no. 2023-029; Hitachi Ltd.) at 730 nm. In each experiment, a blank without the HRP was used, while the ABTS.^+ radical solution without the extract was used as the control. The RSC percentage of the tested extracts was calculated using the following equation: RSC (%)=[(ODcontrol−ODcompound)/ODcontrol]×100, where ODcontrol and OD sample are the optical density (OD) values of the control and the test sample, respectively.

| SMILES | ACLY enzymatic activity (ELISA) (pACLY (S455)) | ABTS Radical Cation Scavenging Assay IC50 [1] [μg extract/mL] |
| --- | --- | --- |
| C/C=C(/C=O)[C@@H](CC=O)CC(=O)OCCCCCCCCCCCCCCCC [GS26, (3S,4E)-4-formyl-3-(2-oxoethyl)-4-hexenoic acid hexadecyl ester] | did not show any effect | – |
| C/C=C(/C=O)[C@@H](CC=O)CC(=O)OCCCSC [GS28, (3S,4E)-4-formyl-3-(2-oxoethyl)-4-hexenoic acid 3-(methylthio)propyl ester] | did not show any effect | – |
| C/C=C(/C=O)[C@@H](CC=O)CC(=O)SCCc1ccccc1 [GS27, S-phenethyl (3S,4E)-4-formyl-3-(2-oxoethyl)hex-4-enethioate] | dramatic effect on reducing; also recorded: substantially reducing | – |
| C/C=C1/[C@H](OC2OC(CO)C(O)C(O)C2O)OC=C(C(=O)O)[C@H]1CC(=O)OCCc1ccc(O)c(O)c1 (stereo in doubt) [GS6, (2S,4S,E)-4-(2-(3,4-dihydroxyphenethoxy)-2-oxoethyl)-3-ethylidene-2{[(2R,3S,4R,5R,6S)-3,4,5-trihydroxy-6-(hydroxymethyl)tetrahydro-2H-pyran-2-yl]oxy}-3,4dihydro-2H-pyran-5-carboxylic acid] | – | 8.2 |
| C/C=C1/[C@H](O[C@@H]2O[C@H](CO)[C@@H](O)[C@H](O)[C@H]2O)OC=C(C(=O)OC)[C@H]1CC(=O)OCCc1ccc(O)c(O)c1 [GS1, oleuropein] | – | 20.9 |
| C/C=C(/C=O)[C@@H](CC=O)CC(=O)OCCc1ccc(O)cc1 [GS19, (3S,4E)-4-formyl-3-(2-oxoethyl)-4-hexenoic acid 2-(4-hydroxyphenyl)ethyl ester, reference compound] | – | 38 |
| C/C=C(/C=O)[C@@H](CC=O)CC(=O)OCCc1ccc(O)c(O)c1 [GS17, (3S,4E)-4-formyl-3-(2-oxoethyl)-4-hexenoic acid 2-(3,4-dihydroxyphenyl)ethyl ester, reference compound] | – | 8 |
| C/C=C(/C=O)[C@@H](CC=O)CC(=O)OCCOc1ccccc1 [GS24, (3S,4E)-4-formyl-3-(2-oxoethyl)-4-hexenoic acid 2-phenoxyethyl ester] | small effect | – |
